{"source": "paper PMC12491715", "about": "(Acta Pharmaceutica Sinica. B, 2025)", "key": {"GSK3β": {"tested_on": "GSK3β", "assay": "Western blot of APP/PS1 mice brain homogenates, GSK3β", "assay_type": "in vivo, C57BL/6J-TgN(APP/PS1)ZLFILAS mice", "details": "15-day treatment, 1 or 5 mg/kg ip"}, "SH-SY5Y cells": {"tested_on": "SH-SY5Y cells", "assay": "Neuroprotection assay against Aβ1–42, 7-AAD flow cytometry", "assay_type": "cell-based, human", "details": "5 μmol/L compound, 5 μmol/L fibrillar Aβ1–42, 48 h", "procedure": "(§1) Cell culture and treatments The human neuroblastoma SH-SY5Y cell line was purchased from American Type Culture Collection (Manassas, VA, USA). Cells were cultured in Advanced Dulbecco’s modified Eagle’s medium (Gibco, Thermo Fisher Scientific, Waltham, MA, USA) supplemented with 10% fetal bovine serum (FBS, Gibco), 2 mmol/L L-glutamine, 50 U/mL penicillin and 50 μg/mL streptomycin (Sigma, St. Louis, MO, USA) in a humidified atmosphere of 95% air and 5% CO2 at 37 °C, and grown to 80% confluence. Prior to cell treatment, complete medium was replaced with serum-reduced medium (i.e., with 2% FBS). Compounds were prepared as a stock solution of 50 mmol/L in DMSO.\nNeuroprotection assay The neuroprotective effect of compounds on cytotoxic effect of Aβ1–42 was determined with the fluorescent intercalator 7-aminoactinomycin D (7-AAD) assessed by flow cytometry. Prior to cell treatment, the peptide Aβ1–42 (Merck Millipore, Darmstadt, Germany) was dissolved in DMSO at a concentration of 1 mmol/L and was incubated at 100 μmol/L in 1 mol/L HCl at 37 °C for 24 h to induce Aβ aggregation. […] Cells were then analysed for cytotoxicity by flow cytometry on Attune NxT flow cytometer (Thermo Fisher Scientific). The percentage of 7AAD positive (7AADpos) cells was evaluated using FlowJo software (FlowJo, LLC., Ashland, OR, USA)."}, "[1]": {"assay": "MTS assay, metabolic activity", "assay_type": "cell-based", "details": "human, SH-SY5Y neuroblastoma cells, read-out: cytotoxic EC50", "procedure": "as §1\nMTS assay SH-SY5Y cells were seeded in 96-well plates (10^4/well) and assessed by MTS ([3-(4,5-dimethylthiazol-2-yl)-5-(3-carboxymethoxyphenyl)-2-(4-sulfophenyl)-2H-tetrazolium, inner salt) assay for their response to compounds. Cells were treated with increasing concentrations of compounds (0.1–10 μmol/L for 5, 1–100 μmol/L for 6–8) in a serum-reduced medium, and metabolic activity was assessed after 24 h (5) or 48 h (6–8) using the CellTiter 96® Aqueous One Solution Cell Proliferation Assay (Promega, Madison, WI, USA), in accordance with the manufacturer’s instructions. Absorbance was measured with an automatic microplate reader (Tecan Safire^2, Switzerland) at 492 nm. Results are presented as a percentage of the control (DMSO)."}, "hBChE": {"biological_target": "hBChE (Homo sapiens, UniProt P06276)", "sequence (P06276 29-602)": "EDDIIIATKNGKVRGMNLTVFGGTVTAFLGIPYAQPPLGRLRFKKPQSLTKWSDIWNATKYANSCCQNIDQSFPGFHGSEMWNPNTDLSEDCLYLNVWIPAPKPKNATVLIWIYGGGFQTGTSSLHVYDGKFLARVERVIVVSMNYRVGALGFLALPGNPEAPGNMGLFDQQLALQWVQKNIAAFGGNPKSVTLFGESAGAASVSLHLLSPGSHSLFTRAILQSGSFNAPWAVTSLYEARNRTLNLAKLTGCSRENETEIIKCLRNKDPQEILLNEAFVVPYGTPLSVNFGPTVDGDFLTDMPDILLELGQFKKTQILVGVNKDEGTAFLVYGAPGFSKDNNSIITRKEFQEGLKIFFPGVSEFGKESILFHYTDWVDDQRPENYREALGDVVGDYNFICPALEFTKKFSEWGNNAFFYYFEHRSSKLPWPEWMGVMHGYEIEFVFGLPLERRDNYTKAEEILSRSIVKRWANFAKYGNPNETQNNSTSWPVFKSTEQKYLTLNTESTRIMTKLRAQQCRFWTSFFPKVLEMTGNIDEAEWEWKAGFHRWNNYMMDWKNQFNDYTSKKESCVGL", "assay": "hBChE binding kinetics: carbamoylation and decarbamoylation, initial velocity measurements", "assay_type": "biochemical", "procedure": "The progress curves for the time courses of product formation for the hydrolysis of butyrylthiocholine iodide were measured on an Agilent Cary 3500 UV–VIS spectrophotometer with Compact Peltier (thermostated at 25 °C) at 412 nm using a 0.6 mL cuvette (optical path–0.5 cm). 30 mmol/L Tris buffer pH 7.0 with 1 mg/mL BSA and 0.02% NaN3 was used and all dilutions were done in glass vessels (note: dilute hBChE solutions rapidly lose activity, presumably due to adsorption to plastic, preventing meaningful decarbamoylation assays. In our hands, under the above conditions only, the diluted and stock solutions of hBChE were stable for at least a month at room temperature.). Total volume in the cuvette was always 500 μL, and enzyme solutions that gave upon dilution v0 = (dA/dt) ≈ 0.5 (for carbamoylation) and ≈ 1 for (for decarbamoylation) were used. For carbamoylation experiments, 0.5–1 μL of enzyme stock, 5 μL of compound solution, and 484 μL of buffer were preincubated for the specified time, then 10 μL of the mixture of 25 mmol/L Ellman’s reagent (DTNB) and 20 mmol/L butyrylthiocholine (large excess to prevent substrate depletion) were added, quickly mixed, and measurement started. […] The data analysis followed the literature[63]^,[98]."}}}
{"smiles": "CCN(CC)C(=O)n1cnc(C2(CC)Cc3ccccc3C2)c1", "note": "[Compound 8, N,N-Diethyl-4-(2-ethylindan-2-yl)-1H-imidazole-1-carboxamide]", "values": [{"measurement": "phosphorylation of GSK3β in whole brain homogenates", "setting": "GSK3β", "result": "increased phosphorylation of GSK3β"}, {"measurement": "7-AAD-positive cells after Aβ1–42 treatment", "setting": "SH-SY5Y cells", "result": "significant reduction"}, {"measurement": "EC50 at 48 h", "setting": "[1]", "result": "> 100000", "unit": "nM"}, {"measurement": "Ki", "setting": "hBChE", "result": "2820 ± 200", "unit": "nM"}, {"measurement": "kcarb, carbamoylation", "setting": "hBChE; 25 °C", "result": "3.7±1.7", "unit": "min^–1"}, {"measurement": "ΔG25°C‡, carbamoylation", "setting": "hBChE; 25 °C", "result": "19.1 ± 0.3", "unit": "kcal/mol"}, {"measurement": "reactivation period of the carbamoylated enzyme", "setting": "hBChE; Table 2", "result": "> 10", "unit": "days"}, {"measurement": "prolongation of decarbamoylation phase", "setting": "hBChE; compared to 6", "result": "> 15", "unit": "fold"}]}
